Reference: patent US20220380724A1, “COMPOSITION FOR PROMOTING PROLIFERATION OF STEM CELLS, CONTAINING, AS ACTIVE INGREDIENT, CP1P OR PHARMACEUTICALLY ACCEPTABLE SALT THEREOF” (INDUSTRY-UNIVERSITY COOPERATION FOUNDATION HANYANG …, priority 2019, published 2022)

What was measured:
Assay type in all cases: cell-based, human
hPSCs (CHA-ESC15) = assay: hPSC cell proliferation ability (optical microscopy and cell count); details: cultured 6 days; for cell proliferation rate increase compared to the control group (FIG. 3): hPSCs, 10 nM, counted day 7, control DMSO; for apoptosis seen in micrographs (FIG. 2): hPSCs, 50, 100 or 500 nM
Experimental: They were shaken up and down, left and right to evenly disperse the cells and cultured within 24 hours in a 37° C. CO2 incubator. The culture medium was replaced with the E8 culture medium from which Y27632 was removed, and then the cells were cultured by replacing the culture medium every day until the next passage.
On the 7th day, the cells were observed using an optical microscope at a magnification of 100 times.
In addition, in order to measure the number of cells, the culture medium of the cells was removed on the 7th day of culture, and they were washed once with PBS. Then, for PBS-removed cells, cell dissociation buffer ([…]) was used to cause single-cell. The separated cells were centrifuged at 1000 rpm for 2 minutes to remove the buffer. Then, the cells were suspended in an E8 medium, and the number of cells was measured using EVE™ Automated Cell Counter (NanoEnTek).
Meanwhile, the control group was tested in the same manner as above, except that hPSCs were treated with DMSO (AppliChem GE, A3672,0100).
The culture was performed for 6 days, and hPSCs were observed on the 7th day. The proliferation rate was calculated as {(total number of cells in P1P, cP1P, or SW treatment group)/(total number of cells in the control group)}×100.

hPSCs [1] = assay: hPSC cell cycle by PI flow cytometry; details: 10 nM
Experimental: For flow cytometry, hPSCs were treated with 10 nM cP1P in the same manner as in Example 1, and hPSCs were separated using cell dissociation buffer (Thermo Fisher Scientific US, A1110501), and harvested cells were washed three times with DPBS (pH 7.4). After washing, the supernatant was removed. During washing, cold 70% (v/v) ethanol was added dropwise to the cell pellet. The cells were fixed at 4° C. for 1 hour and washed 3 times with DPBS (pH 7.4). After centrifugation at 2,000 rpm for 5 minutes, 50 uL of 100 μg/ml RNase (Sigma-Aldrich US, R4642) was added. They were mixed well and added with 200 μl of PI (propidium iodide) (Sigma-Aldrich US, P4170) (50 μg/ml) to stain the DNA. Then, the DNA content was measured using flow cytometry (BD).

hPSCs [2] = assay: Alkaline phosphatase staining of hPSCs (undifferentiation ability); details: 10 nM, compared to DMSO control
Experimental: In order to check whether the differentiation ability of hPSCs was changed by cP1P treatment, hPSCs were treated with 10 nM cP1P or a control group (vehicle, DMSO) in the same manner as in Example 2.

hPSCs [3] = assay: Apoptosis and cytotoxicity assay (Annexin V / 7-AAD); details: 5 days; for apoptosis marker, (Annexin V, early apoptosis marker; FIG. 8): DMSO control 0.5%; for apoptosis marker, (7-AAD, late apoptosis marker; FIG. 8): DMSO control 6.2%
Experimental: In order to confirm apoptosis, hPSCs were treated with 10 nM cP1P in the same manner as in Example 1, hPSCs were separated using cell dissociation buffer (Thermo Fisher Scientific US, A1110501), and harvested cells were washed with DPBS (pH 7.4) 2 times. After centrifuged at 2,000 rpm for 5 minutes. The cells were resuspended at 1×10^5 cells per 100 ul of 1× binding buffer to which 10× binding buffer (0.1 M HEPES, 1.4 M NaCl, 25 mM CaCl2, pH 7.4) was diluted. They were added with 5 ul each of Annexin V (BD bioscience US, 556422) and 7-AAD (BD bioscience U.S. Pat. No. 1,559,925) and mixed slowly. They were cultured for 15 minutes in the dark at room temperature and added with 400 ul of 1× binding buffer. Then, analysis was performed using the Annexin V apoptosis detection kit (BD Pharmingen US, 556547).
In order to confirm whether apoptosis and cytotoxicity were induced when hPSCs were treated with cP1P, hPSCs were treated with 10 nM or 100 nM cP1P for 5 days in the same manner as in Example 6, and then Annexin V apoptosis detection kit (BD Pharmingen US, 556547) was used for analysis.

CDK1, Cyclin B = assay: Expression of cell cycle regulatory genes in hPSCs; details: 10 nM, compared to control
Experimental: (§1) For expression analysis of cell cycle regulatory genes, hPSCs were treated with 10 nM cP1P in the same manner as in Example 1. After hPSCs were washed with PBS, hPSCs were fixed in 4% (w/v) PFA (Santa Cruz Biotechnology US, 30525-89-4) for 5 minutes, or after the protein of hPSC cells was recovered, followed by electrophoresis. The expression of pluripotency genes was analyzed (immunofluorescence analysis or Western blot analysis) using anti-REX1(Abcam UK, ab50828), anti-OCT4(Santa Cruz Biotechnology US, sc-5279), anti-SOX2(Abcam UK, ab97959), anti-NANOG(Cell signaling US, 4893s), anti-E-cadherin(Cell signaling US, 24E10), or anti-SSEA4(Merck millipore US, 90231) antibody. Meanwhile, the control group was tested in the same manner as above, except that hPSCs were treated with DMSO (AppliChem GE, A3672,0100).

hPSCs [4] = assay: RNA sequencing of hPSCs after long-term (15 passages) treatment; details: 10 nM
Experimental: Specifically, hPSCs were treated and cultured with 10 nM cP1P or were treated and cultured with DMSO as a control group in the same manner as in Example 1. The passage in which cP1P was first treated was defined as 0 and cultured up to a total of 15 passages. After the cells were recovered, and RNAs were extracted. The RNA sequencing analysis was performed with a next-generation sequencing analyzer (Illumina HiSeq 2500) by DGIST (Daegu Gyeongbuk Institute of Science and Technology) asked to analyze the cells.

[5] = system: REX1, E-Cadherin, OCT4, SOX2, NANOG, SSEA-4; assay: Pluripotency marker expression in hPSCs (immunofluorescence, pluripotent array kit, flow cytometry, Western blot); details: 100 nM
Experimental: as §1
Specifically, hPSCs were treated with 100 nM cP1P in the same manner as in Example 1. Immunofluorescence analysis was performed in the same manner as in Example 6. Expression of pluripotency-related genes was analyzed using a pluripotent array kit (R&D System US, ARY101). Flow cytometry was performed in the same manner as in Example 6.

hPSCs [6] = assay: hPSC proliferation during subculture (total number of cells); details: continuous 10 nM, subculture 3 times, P<0.01
Experimental: In order to check whether the change in hPSCs proliferation ability by cP1P treatment is maintained during subculture, hPSCs were continuously treated with 10 nM cP1P in the same manner as in Example 1, and after subculture 3 times, the proliferation change of hPSCs was confirmed.

For `CCCCCCCCCCCCC/C=C/[C@@H](O)[C@@H](N)COP(=O)(O)O` [S1P, sphingosine-1-phosphate], the “cell proliferation rate increase compared to the control group (FIG. 3)” value (from here on “cell proliferation rate increase”) (hPSCs (CHA-ESC15)) was “about 1.25 times” and the “apoptosis seen in micrographs (FIG. 2)” value (hPSCs (CHA-ESC15); observed day 7) was “apoptosis occurred”.

With `CCCCCCCCCCCCCC[C@@H](O)[C@H]1OP(=O)(O)OC[C@@H]1N` [cP1P, o-cyclic phytosphingosine-1-phosphate] the “increase of cell proliferation compared to the control group (FIG. 7A)” value (hPSCs [1]) was ≥ 12%, the “number of cells in G2/M phase (FIG. 7B)” value (hPSCs [1]; compared to control, P<0.01) was “significantly increased” and the “number of cells in sub-GO phase (apoptotic cells, FIG. 7B)” value (hPSCs [1]; compared to control, P>0.05) was “significantly reduced”. The “cell proliferation, experimental group (FIG. 7A)” value (hPSCs [1]; control group 48%) was 60%, the “undifferentiation ability (alkaline phosphatase staining, FIG. 4)” value (hPSCs [2]) was “well maintained” and the “apoptosis compared to the control group (FIG. 8)” value (hPSCs [3]; 10 nM or 100 nM) was “reduced”. For the same molecule, the “cytotoxicity compared to the control group (FIG. 8)” value (hPSCs [3]; 10 nM or 100 nM) was “significantly lowered”, the “apoptosis marker, (Annexin V, early apoptosis marker; FIG. 8)” value (hPSCs [3]; 10 nM) was 0.9% and the “apoptosis marker, (7-AAD, late apoptosis marker; FIG. 8)” value (hPSCs [3]; 10 nM) was 3.9%. For the same molecule, the “apoptosis marker, (Annexin V, early apoptosis marker; FIG. 8)” value (hPSCs [3]; 100 nM) was 1.9%, the “apoptosis marker, (7-AAD, late apoptosis marker; FIG. 8)” value (hPSCs [3]; 100 nM) was 5.3% and the “expression of genes regulating the cell cycle (CDK1, Cyclin B; FIGS. 7C to 7E)” value (CDK1, Cyclin B) was “increased”. For the same molecule, the “cluster 5 (C5) gene expression (cell development, embryo development, cell proliferation genes)” value (hPSCs [4]; decreased in untreated control) was “stably maintained”, the “cluster 2 (C2) gene expression (oxidative stress and apoptotic process genes)” value (hPSCs [4]; increased in untreated control) was “decreased” and the “gene expression changes (DEG) compared with passage 0 (FIG. 10)” value (hPSCs [4]; no cP1P-treated group 575) was 197. The “expression of pluripotency marker genes REX1, E-Cadherin, OCT4 and SOX2 (immunofluorescence, FIG. 9A)” value ([5]; compared to control) was “increased”, the “protein expression of OCT4 and E-Cadherin (FIG. 9D)” value ([5]; compared to control) was “increased” and the “spots of pluripotency-related genes OCT4, NANOG, SOX2 and E-Cadherin (array, FIG. 9B)” value ([5]; compared to control) was “detected to be high”. For the same molecule, the “protein expression of SSEA-4 (FIG. 9C)” value ([5]; control 68.8%) was 82.2%, the “protein expression of E-Cadherin (FIG. 9C)” value ([5]; control 81.8%) was 85.6% and the “protein expression of REX1 (FIG. 9C)” value ([5]; control 86.8%) was 95.7%. For the same molecule, the “protein expression of OCT4 (FIG. 9C)” value ([5]; control 95.2%) was 96.5%, the “total number of cells as subculture was performed (FIG. 6)” value (hPSCs [6]) was “increased significantly” and the “cell proliferation rate increase” value (hPSCs (CHA-ESC15)) was 1.78 times. The “cell proliferation ability (FIG. 2)” value (hPSCs (CHA-ESC15); hPSCs, 50, 100 or 500 nM every 2 days, observed day 7, compared to P1P or S1P) was “significantly increased”.

For `CCCCCCCCCCCCCC[C@@H](O)[C@@H](O)[C@@H](N)COP(=O)(O)O` [P1P, phytosphingosine-1-phosphate], the “cell proliferation rate increase” value (hPSCs (CHA-ESC15)) was “about 1.55 times” and the “apoptosis seen in micrographs (FIG. 2)” value (hPSCs (CHA-ESC15); observed day 7) was “apoptosis occurred”.
